This is an account of results in US8217048B2, “Inhibitors of serine proteases, particularly HCV NS3-NS4A protease” (Vertex Pharmaceuticals Incorporated, priority 2003, dated 2012).

The IC50 is the point on the concentration scale where inhibition reaches its midpoint. In general, Ki refers to a dissociation constant, usually derived from enzyme kinetics or from competition with a known ligand.

In assay [1] the test system is Cells containing hepatitis C virus (HCV) replicon. Description: HCV Replicon Cell Assay (Example 4). Format: cell-based. Conditions: 48 h, tested according to Example 4 (cell), 50% inhibition of HCV RNA level, 48-hour incubation. On the procedure:
HCV Replicon Cell Assay Protocol
Cells containing hepatitis C virus (HCV) replicon were maintained in DMEM containing 10% fetal bovine serum (FBS), 0.25 mg per ml of G418, with appropriate supplements (media A).
On day 1, replicon cell monolayer was treated with a trypsin:EDTA mixture, removed, and then media A was diluted into a final concentration of 100,000 cells per ml wit. 10,000 cells in 100 ul were plated into each well of a 96-well tissue culture plate, and cultured overnight in a tissue culture incubator at 37° C.
On day 2, compounds (in 100% DMSO) were serially diluted into DMEM containing 2% FBS, 0.5% DMSO, with appropriate supplements (media B). The final concentration of DMSO was maintained at 0.5% throughout the dilution series.
Media on the replicon cell monolayer was removed, and then media B containing various concentrations of compounds was added. Media B without any compound was added to other wells as no compound controls.
Cells were incubated with compound or 0.5% DMSO in media B for 48 hours in a tissue culture incubator at 37° C. At the end of the 48-hour incubation, the media was removed, and the replicon cell monolayer was washed once with PBS and stored at −80° C. prior to RNA extraction.
Culture plates with treated replicon cell monolayers were thawed, and a fixed amount of another RNA virus, such as Bovine Viral Diarrhea Virus (BVDV) was added to cells in each well, RNA extraction reagents (such as reagents from RNeasy kits) were added to the cells immediately to avoid degradation of RNA. Total RNA was extracted according the instruction of manufacturer with modification to improve extraction efficiency and consistency. Finally, total cellular RNA, including HCV replicon RNA, was eluted and stored at −80° C. until further processing.
A Taqman real-time RT-PCR quantification assay was set up with two sets of specific primers and probe. One was for HCV and the other was for BVDV. Total RNA extractants from treated HCV replicon cells was added to the PCR reactions for quantification of both HCV and BVDV RNA in the same PCR well. Experimental failure was flagged and rejected based on the level of BVDV RNA in each well. The level of HCV RNA in each well was calculated according to a standard curve run in the same PCR plate. The percentage of inhibition or decrease of HCV RNA level due to compound treatment was calculated using the DMSO or no compound control as 0% of inhibition. The IC50 (concentration at which 50% inhibition of HCV RNA level is observed) was calculated from the titration curve of any given compound.
Background: Replicon systems follow genome replication, usually without infectious particles.

Assay [2] concerns the target T1, HCV NS3-NS4A protease (Hepatitis C virus genotype 1a, UniProt P27958).
T1 construct: The buffer, KK4A, DTT, and tNS3 were combined
The assay can be described thus: HCV Ki Assay (enzyme, Example 5). Conditions: Ki values, tested according to Example 5 (enzyme); 5AB substrate, tNS3 with KK4A. In kind it is biochemical. As for the experimental part: HPLC Microbore Method for Separation of 5AB Substrate and Products
NH2-Glu-Asp-Val-Val-(alpha)Abu-Cys-Ser-Met-Ser-Tyr-COOH
A stock solution of 20 mM 5AB (or concentration of your choice) was made in DMSO w/0.2M DTT. This was stored in aliquots at −20 C.
Buffer: 50 mM HEPES, pH 7.8; 20% glycerol; 100 mM NaCl
Total assay volume was 100 μL
The buffer, KK4A, DTT, and tNS3 were combined; distributed 78 μL each into wells of 96 well plate. This was incubated at 30 C for ˜5-10 min.
2.5 μL of appropriate concentration of test compound was dissolved in DMSO (DMSO only for control) and added to each well. This was incubated at room temperature for 15 min.
Initiated reaction by addition of 20 μL of 250 μM 5AB substrate (25 μM concentration is equivalent or slightly lower than the Km for 5AB).
Incubated for 20 min at 30 C.
Terminated reaction by addition of 25 μL of 10% TFA
Transferred 120 μL aliquots to HPLC vials
Separated SMSY product from substrate and KK4A by the following method:
Microbore Separation Method:
Instrumentation: Agilent 1100
Column thermostated chamber G1316A
Diode array detector G1315A
Solvent A=HPLC grade water+0.1% TFA
Solvent B=HPLC grade acetonitrile+0.1% TFA
Stop time: 17 min Post-run time: 10 min.

T1 sequence (P27958 1658-1711): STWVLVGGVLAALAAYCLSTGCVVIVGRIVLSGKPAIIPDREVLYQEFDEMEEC
T1 sequence (P27958 1027-1208): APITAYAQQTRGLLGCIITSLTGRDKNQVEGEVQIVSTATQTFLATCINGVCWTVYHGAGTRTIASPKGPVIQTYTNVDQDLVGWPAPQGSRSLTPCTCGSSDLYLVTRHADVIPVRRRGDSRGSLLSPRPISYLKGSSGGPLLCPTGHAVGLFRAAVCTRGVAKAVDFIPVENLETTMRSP

In the case of `CCC[C@H](NC(=O)[C@@H]1C[C@@H](Oc2ccc(OC)cc2Cl)CN1C(=O)[C@@H](NC(=O)[C@@H](NC(=O)c1cnccn1)C1CCCCC1)C(C)(C)C)C(=O)C(=O)NC1CC1` [Compound 64], the IC50 in assay [1] is below 500 nM. The same molecule came in with a Ki in assay [2] below 100 nM.
The matching figures for `CCC[C@H](NC(=O)[C@@H]1C[C@@H](Oc2ccc(OC(F)(F)F)cc2)CN1C(=O)[C@@H](NC(=O)[C@@H](NC(=O)c1cnccn1)C1CCCCC1)C(C)(C)C)C(=O)C(=O)NC1CC1` [Compound 14]: below 500 nM and 100 to 300 nM.
`CCC[C@H](NC(=O)[C@@H]1C[C@@H](Oc2ccccn2)CN1C(=O)[C@@H](NC(=O)[C@@H](NC(=O)c1cnccn1)C1CCCCC1)C(C)(C)C)C(=O)C(=O)NC1CC1` [Compound 58] gave an IC50 in assay [1] below 500 nM. For the same molecule, the Ki in assay [2] was below 100 nM.
In the case of `CCC[C@H](NC(=O)[C@@H]1C[C@@H](Oc2cc(F)cc(F)c2)CN1C(=O)[C@@H](NC(=O)[C@@H](NC(=O)c1cnccn1)C1CCCCC1)C(C)(C)C)C(=O)C(=O)NC1CC1` [Compound 55], the IC50 in assay [1] is below 500 nM. In assay [2], this molecule had a Ki of 100 to 300 nM.
As to `CCC[C@H](NC(=O)C1C[C@@H](Oc2cc(C(F)(F)F)cc(C(F)(F)F)c2)CN1C(=O)[C@@H](NC(=O)[C@@H](NC(=O)c1cnccn1)C1CCCCC1)C(C)(C)C)C(=O)C(=O)NC1CC1` (stereo partly drawn) [Compound 11], the IC50 in assay [1] is above 1000 nM. Besides, the Ki in assay [2] is above 300 nM.
In assay [1], `CCC[C@H](NC(=O)[C@@H]1C[C@@H](Oc2cccc3ccccc23)CN1C(=O)[C@@H](NC(=O)[C@@H](NC(=O)c1cnccn1)C1CCCCC1)C(C)(C)C)C(=O)C(=O)NC1CC1` [Compound 36] had an IC50 below 500 nM. This molecule yielded a Ki in assay [2] below 100 nM.
`CCC[C@H](NC(=O)[C@@H]1C[C@@H](Oc2cccc(C(F)(F)F)c2)CN1C(=O)[C@@H](NC(=O)[C@@H](NC(=O)c1cnccn1)C1CCCCC1)C(C)(C)C)C(=O)C(=O)NC1CC1` [Compound 22] returned an IC50 in assay [1] below 500 nM. Also, the Ki in assay [2] is 100 to 300 nM.
In assay [1], `CCC[C@H](NC(=O)C1C[C@@H](Oc2ccc(Cl)cc2Cl)CN1C(=O)[C@@H](NC(=O)[C@@H](NC(=O)c1cnccn1)C1CCCCC1)C(C)(C)C)C(=O)C(=O)NC1CC1` (stereo partly drawn) [Compound 2] yielded an IC50 of 500 to 1000 nM. This molecule also had a Ki in assay [2] of 100 to 300 nM.
The matching figures for `CCC[C@H](NC(=O)[C@@H]1C[C@@H](Oc2ccc(C(=O)N3CCN(C(=O)OCc4ccccc4)CC3)cc2)CN1C(=O)[C@@H](NC(=O)[C@@H](NC(=O)c1cnccn1)C1CCCCC1)C(C)(C)C)C(=O)C(=O)NC1CC1` [Compound 70]: 500 to 1000 nM and 100 to 300 nM.
`CCC[C@H](NC(=O)[C@@H]1C[C@@H](Oc2cccc(OC(F)(F)F)c2)CN1C(=O)[C@@H](NC(=O)[C@@H](NC(=O)c1cnccn1)C1CCCCC1)C(C)(C)C)C(=O)C(=O)NC1CC1` [Compound 16] had an IC50 in assay [1] of 500 to 1000 nM. The Ki in assay [2] lay in the range of 100 to 300 nM.
Regarding `CCC[C@H](NC(=O)[C@@H]1C[C@@H](Oc2cccc(NC(C)=O)c2)CN1C(=O)[C@@H](NC(=O)[C@@H](NC(=O)c1cnccn1)C1CCCCC1)C(C)(C)C)C(=O)C(=O)NC1CC1` [Compound 49], the IC50 in assay [1] was above 1000 nM. The molecule further returned a Ki in assay [2] below 100 nM.
For the molecule `CCC[C@H](NC(=O)[C@@H]1C[C@@H](Oc2cccc(-c3ccccc3)c2)CN1C(=O)[C@@H](NC(=O)[C@@H](NC(=O)c1cnccn1)C1CCCCC1)C(C)(C)C)C(=O)C(=O)NC1CC1` [Compound 15], in assay [1], the IC50 is below 500 nM. The molecule also came in with a Ki in assay [2] below 100 nM.
In assay [1], `CCC[C@H](NC(=O)[C@@H]1C[C@@H](Oc2ccc(Cl)cc2)CN1C(=O)[C@@H](NC(=O)[C@@H](NC(=O)c1cnccn1)C1CCCCC1)C(C)(C)C)C(=O)C(=O)NC1CC1` [Compound 56] gave an IC50 below 500 nM. Further, in assay [2], the Ki was below 100 nM.
Molecule `CCC[C@H](NC(=O)[C@@H]1C[C@@H](Oc2ccc(CC#N)cc2)CN1C(=O)[C@@H](NC(=O)[C@@H](NC(=O)c1cnccn1)C1CCCCC1)C(C)(C)C)C(=O)C(=O)NC1CC1` [Compound 65] registered an IC50 in assay [1] below 500 nM. In assay [2], this molecule had a Ki of 100 to 300 nM.
Regarding `CCC[C@H](NC(=O)[C@@H]1C[C@@H](Oc2ccccc2Cl)CN1C(=O)[C@@H](NC(=O)[C@@H](NC(=O)c1cnccn1)C1CCCCC1)C(C)(C)C)C(=O)C(=O)NC1CC1` [Compound 20], the IC50 in assay [1] is 500 to 1000 nM. For the same molecule, the Ki in assay [2] is below 100 nM.
